# Laboratory results reported in patent US8916551B2, “Heterocyclic compound and use thereof” (Takeda Pharmaceutical Company Limited, priority 2010, dated 2014).
# Target: T1, AMPA receptor (human GluR1 flip/stargazin expressed in CHO-K1 cells) (Homo sapiens, UniProt P42261)
# T1 construct: expressed in transfected cells; host or cells: CHO-K1
# Test: AMPA receptor function enhancing activity using calcium influx as index
# Format: cell-based
# Conditions: 100% = 3 mM glutamic acid + 300 μM cyclothiazide, 0% = 3 mM glutamic acid only
# From the text: Human GluR1 flip cDNA was amplified by PCR using forward primer […] (SEQ ID NO: 1) and reverse primer […] (SEQ ID NO: 2) artificially synthesized using human brain-derived cDNA (BD Bio science) as a template. The amplified product was digested with restriction enzymes EcoRI, NotI (TAKARA SHUZO CO. LTD.), and incorporated into the same site of pcDNA3.1(+) (Invitrogen) to construct pcDNA3.1(+)/human GluR1 flip gene. Human stargazin cDNA was amplified by PCR using forward primer […] (SEQ ID NO: 3) and reverse primer […] (SEQ ID NO: 4) artificially synthesized using human hippocampus cDNA as a template. The amplified product was digested with restriction enzymes XhoI, BamHI (TAKARA SHUZO CO. LTD.), and incorporated into the same site of pcDNA3.1(−) (Invitrogen) to construct pcDNA3.1 Zeo(−)/human stargazin gene.
# CHO-K1 cells passaged in a culture medium (Ham's F12 medium (Invitrogen) added with 10% inactivated fetal bovine serum (Morgate) and penicillin, streptomycin (Invitrogen)) were detached with 0.05% trypsin, 0.53 mM EDTA (Invitrogen) diluted with D-PBS(−). The detached cells were suspended in a culture medium, and recovered by a centrifugation operation at 1,000 rpm. The recovered cells were suspended again in D-PBS(−), and added to a 0.4 cm electroporation cuvette (BioRad). pcDNA3.1(+)/human GluR1 flip gene (5 μg) and pcDNA3.1 Zeo(−)/human stargazin gene (15 μg) were added, and the mixture was introduced into CHO-K1 cells using Gene Pulser II (BioRad) under the conditions of 950 μFd, […]. The introduced cells were cultured overnight in a culture medium and, the next day, plated in a 96 well plate at 250 cells/well using a selection medium (culture medium added with Zeocin (Invitrogen) to 250 μg/mL). Clones showing drug resistance were selected, and GluR1 flip/stargazin expressing clones were selected by an assay method using calcium influx as an index as shown below.
# CHO-K1/GluR1 flip/stargazin expressing cells were plated on a 96 well black transparent bottom plate (Costar) at 2×10^4 cells/well, and cultured in a 37° C., CO2 incubator (SANYO Electric Co., Ltd.) for 2 days. The medium in the cell plate was removed, and assay buffer A (D-MEM (Invitrogen), 0.1% BSA (Serogical Protein), 20 mM HEPES (Invitrogen)) was added at 50 μL/well. A calcium indicator (Calcium 4 Assay Kit, Invitrogen) added with 2.5 mM probenecid (Invitrogen) was added at 50 μL/well and the well was left standing in 37° C., CO2 incubator for 1 hr. The cell plate was set in CellLux (PerkinElmer), a mixture (50 μL) of 9 mM glutamic acid diluted with assay buffer B (HBSS (Invitrogen), 0.1% BSA, 20 mM HEPES) (final concentration 3 mM) and a test compound (test compound concentration 30 μM) was added, and the amount of change in fluorescence level in 3 min was measured. In the definition here, the amount of change in fluorescence level of well added with glutamic acid at final concentration 3 mM and 300 μM cyclothiazide (TOCRIS) is 100%, the amount of change in fluorescence level of well added only with glutamic acid at final concentration 3 mM is 0%, and the compound activity was calculated according to the following formula. activity(%)=(X−C)/(T−C)×100 T: amount of change in fluorescence level of well added with glutamic acid at final concentration 3 mM and 300 μM cyclothiazide C: amount of change in fluorescence level of well added only with glutamic acid at final concentration 3 mM X: amount of change in fluorescence level of well added with test compound
# [1] = test compound 30 μM with glutamic acid final 3 mM, change in fluorescence in 3 min
# [2] = test compound 30 μM with 3 mM glutamic acid, change in fluorescence level in 3 min
# T1 sequence (P42261 19-906 isoform P42261-2 limits assumed): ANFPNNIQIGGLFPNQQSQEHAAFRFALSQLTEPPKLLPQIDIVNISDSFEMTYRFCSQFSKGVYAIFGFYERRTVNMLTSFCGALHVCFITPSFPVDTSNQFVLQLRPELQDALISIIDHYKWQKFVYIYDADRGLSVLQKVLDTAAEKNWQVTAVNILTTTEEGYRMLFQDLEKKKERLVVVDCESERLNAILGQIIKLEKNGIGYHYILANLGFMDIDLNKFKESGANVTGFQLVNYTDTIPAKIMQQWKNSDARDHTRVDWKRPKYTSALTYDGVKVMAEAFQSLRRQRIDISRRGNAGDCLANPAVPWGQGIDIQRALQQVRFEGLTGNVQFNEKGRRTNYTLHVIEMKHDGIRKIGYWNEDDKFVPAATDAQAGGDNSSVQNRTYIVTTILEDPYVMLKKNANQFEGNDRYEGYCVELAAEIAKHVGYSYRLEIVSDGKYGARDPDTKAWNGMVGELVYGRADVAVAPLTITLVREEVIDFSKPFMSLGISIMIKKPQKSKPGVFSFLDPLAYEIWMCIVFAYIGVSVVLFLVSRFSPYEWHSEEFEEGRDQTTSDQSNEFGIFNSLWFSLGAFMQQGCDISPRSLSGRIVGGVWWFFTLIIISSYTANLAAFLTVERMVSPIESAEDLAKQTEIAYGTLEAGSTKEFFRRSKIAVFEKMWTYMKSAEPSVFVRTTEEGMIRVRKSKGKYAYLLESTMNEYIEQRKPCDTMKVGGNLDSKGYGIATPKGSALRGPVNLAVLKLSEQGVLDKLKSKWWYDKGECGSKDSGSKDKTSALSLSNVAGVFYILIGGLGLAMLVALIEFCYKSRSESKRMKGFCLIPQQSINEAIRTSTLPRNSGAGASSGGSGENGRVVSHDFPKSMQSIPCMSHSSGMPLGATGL
# T1 sequence (Q9Y698 whole entry partner): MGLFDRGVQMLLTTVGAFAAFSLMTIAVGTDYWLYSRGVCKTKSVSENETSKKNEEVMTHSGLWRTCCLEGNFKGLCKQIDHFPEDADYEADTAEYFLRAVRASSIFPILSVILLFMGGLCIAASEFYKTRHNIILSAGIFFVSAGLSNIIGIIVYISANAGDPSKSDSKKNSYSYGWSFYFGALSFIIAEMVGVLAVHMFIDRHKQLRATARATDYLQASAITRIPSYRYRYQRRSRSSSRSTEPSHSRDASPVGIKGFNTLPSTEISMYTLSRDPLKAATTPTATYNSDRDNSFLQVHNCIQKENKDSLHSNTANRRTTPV
Compound,activity (%) [1] [%],activity (%) [2] [%]
"Cc1cccc(Oc2ccc(C3CCCN4CCS(=O)(=O)N=C34)cc2)c1 (stereo not shown) [Example 119, 9-[4-(3-methylphenoxy)phenyl]-3,4,6,7,8,9-hexahydropyrido[2,1-c][1,2,4]thiadiazine 2,2-dioxide]",92,–
"CCC(C)c1ccc(NC(=O)C2=NC=CN3CCS(=O)(=O)N=C23)cc1 (stereo not shown) [Example 1, N-[4-(1-methylpropyl)phenyl]-3,4-dihydropyrazino[2,1-c][1,2,4]thiadiazine-9-carboxamide 2,2-dioxide]",66,–
"Cc1ccc(Oc2ccc(C3CCCN4CCS(=O)(=O)N=C34)cc2)cc1 (stereo not shown) [Example 108, 9-[4-(4-methylphenoxy)phenyl]-3,4,6,7,8,9-hexahydropyrido[2,1-c][1,2,4]thiadiazine 2,2-dioxide]",68,–
"O=S1(=O)CCN2CCCC(c3ccc(-c4ccccc4)c(F)c3)C2=N1 (stereo not shown) [Example 96, 9-(2-fluorobiphenyl-4-yl)-3,4,6,7,8,9-hexahydropyrido[2,1-c][1,2,4]thiadiazine 2,2-dioxide]",74,–
"Cc1ccc(Oc2ccc(C3=CC=CN4CCS(=O)(=O)N=C34)cc2)cc1C [Example 134, 9-[4-(3,4-dimethylphenoxy)phenyl]-3,4-dihydropyrido[2,1-c][1,2,4]thiadiazine 2,2-dioxide]",77,–
"Cc1cc(Oc2ccc(C3=CC=CN4CCS(=O)(=O)N=C34)cc2)ccc1F [Example 111, 9-[4-(4-fluoro-3-methylphenoxy)phenyl]-3,4-dihydropyrido[2,1-c][1,2,4]thiadiazine 2,2-dioxide]",58,–
"O=S1(=O)CCN2C=CC=C(c3ccc(OC4CCCCCC4)cc3)C2=N1 [Example 88, 9-[4-(cycloheptyloxy)phenyl]-3,4-dihydropyrido[2,1-c][1,2,4]thiadiazine 2,2-dioxide]",75,–
"CCC(CC)Oc1ccc(C2=CC=CN3CCS(=O)(=O)N=C23)cc1 [Example 72, 9-[4-(1-ethylpropoxy)phenyl]-3,4-dihydropyrido[2,1-c][1,2,4]thiadiazine 2,2-dioxide]",80,–
"O=S1(=O)CCN2CCCC(c3ccc(Oc4ccccc4)cc3)C2=N1 (stereo not shown) [Example 43, 9-(4-phenoxyphenyl)-3,4,6,7,8,9-hexahydropyrido[2,1-c][1,2,4]thiadiazine 2,2-dioxide]",81,–
"Cc1ccccc1Oc1ccc(C2=CC=CN3CCS(=O)(=O)N=C23)cc1 [Example 115, 9-[4-(2-methylphenoxy)phenyl]-3,4-dihydropyrido[2,1-c][1,2,4]thiadiazine 2,2-dioxide]",80,–
"O=S1(=O)CCN2C=C(F)C=C(c3ccc(OC4CCCCC4)cc3)C2=N1 [Example 89, 9-[4-(cyclohexyloxy)phenyl]-7-fluoro-3,4-dihydropyrido[2,1-c][1,2,4]thiadiazine 2,2-dioxide]",85,–

# Further lines, results first:
activity (%) [1] [%],activity (%) [2] [%],Compound
80,–,"CC(C)Cn1ccc2cc(C3=CC=CN4CCS(=O)(=O)N=C34)ccc21 [Example 293, 9-[1-(2-methylpropyl)-1H-indol-5-yl]-3,4-dihydropyrido[2,1-c][1,2,4]thiadiazine 2,2-dioxide]"
–,78,"O=S1(=O)CCN2CCC[C@@H](c3ccc(Oc4ccc(Br)cc4)cc3)C2=N1 [Example 228, (9S)-9-[4-(4-bromophenoxy)phenyl]-3,4,6,7,8,9-hexahydropyrido[2,1-c][1,2,4]thiadiazine 2,2-dioxide]"
78,–,"O=S1(=O)CCN2CCCC(c3ccc(Oc4ccc(F)c(Cl)c4)cc3)C2=N1 (stereo not shown) [Example 447, 9-[4-(3-chloro-4-fluorophenoxy)phenyl]-3,4,6,7,8,9-hexahydropyrido[2,1-c][1,2,4]thiadiazine 2,2-dioxide]"
74,–,"CCCOc1ccc(C2CCCN3CCS(=O)(=O)N=C23)cc1F (stereo not shown) [Example 350, 9-(3-fluoro-4-propoxyphenyl)-3,4,6,7,8,9-hexahydropyrido[2,1-c][1,2,4]thiadiazine 2,2-dioxide]"
–,63,"COc1cc(Oc2ccc(C3CCCN4CCS(=O)(=O)N=C34)cc2)ccc1Cl (stereo not shown) [Example 155, 9-[4-(4-chloro-3-methoxyphenoxy)phenyl]-3,4,6,7,8,9-hexahydropyrido[2,1-c][1,2,4]thiadiazine 2,2-dioxide]"
–,72,"O=S1(=O)CCN2CCCC(c3ccc(OC4CCCCC4)cc3)C2=N1 (stereo not shown) [Example 261, 9-[4-(cyclohexyloxy)phenyl]-3,4,6,7,8,9-hexahydropyrido[2,1-c][1,2,4]thiadiazine 2,2-dioxide]"
–,80,"O=S1(=O)CCN2C=C(Cl)C=C(c3ccc(OCC4CCOCC4)cc3)C2=N1 [Example 253, 7-chloro-9-[4-(tetrahydro-2H-pyran-4-ylmethoxy)phenyl]-3,4-dihydropyrido[2,1-c][1,2,4]thiadiazine 2,2-dioxide]"
–,67,"Cc1cc(Cl)ccc1Oc1ccc([C@@H]2CCCN3CCS(=O)(=O)N=C23)cc1 [Example 215, (9S)-9-[4-(4-chloro-2-methylphenoxy)phenyl]-3,4,6,7,8,9-hexahydropyrido[2,1-c][1,2,4]thiadiazine 2,2-dioxide]"
71,–,"Cc1ccc(C(F)(F)c2ccc(C3CCCN4CCS(=O)(=O)N=C34)cc2)cc1 (stereo not shown) [Example 138, 9-{4-[difluoro(4-methylphenyl)methyl]phenyl}-3,4,6,7,8,9-hexahydropyrido[2,1-c][1,2,4]thiadiazine 2,2-dioxide]"
–,73,"Cc1cccc(Oc2ccc(C3=CC=CN4CCS(=O)(=O)N=C34)cc2)n1 [Example 246, 9-{4-[(6-methylpyridin-2-yl)oxy]phenyl}-3,4-dihydropyrido[2,1-c][1,2,4]thiadiazine 2,2-dioxide]"
69,–,"COc1ccc2ccc(OC3CCCN4CCS(=O)(=O)N=C34)cc2c1 (stereo not shown) [Example 462, 9-[(7-methoxynaphthalen-2-yl)oxy]-3,4,6,7,8,9-hexahydropyrido[2,1-c][1,2,4]thiadiazine 2,2-dioxide]"
–,76,"Cc1cc(F)ccc1Oc1ccc(C2CCCN3CCS(=O)(=O)N=C23)cc1 (stereo not shown) [Example 144, 9-[4-(4-fluoro-2-methylphenoxy)phenyl]-3,4,6,7,8,9-hexahydropyrido[2,1-c][1,2,4]thiadiazine 2,2-dioxide]"
77,–,"Cc1ccc(C(F)(F)c2ccc(C3=CC=CN4CCS(=O)(=O)N=C34)cc2)cc1 [Example 136, 9-{4-[difluoro(4-methylphenyl)methyl]phenyl}-3,4-dihydropyrido[2,1-c][1,2,4]thiadiazine 2,2-dioxide]"
89,–,"COc1cc(Oc2ccc(C3=CC=CN4CCS(=O)(=O)N=C34)cc2)ccc1F [Example 316, 9-[4-(4-fluoro-3-methoxyphenoxy)phenyl]-3,4-dihydropyrido[2,1-c][1,2,4]thiadiazine 2,2-dioxide]"
82,–,"Cc1ccc(C(C)(C)c2ccc(C3=CC=CN4CCS(=O)(=O)N=C34)cc2)cc1 [Example 329, 9-{4-[1-methyl-1-(4-methylphenyl)ethyl]phenyl}-3,4-dihydropyrido[2,1-c][1,2,4]thiadiazine 2,2-dioxide]"
83,–,"O=S1(=O)CCN2C=CC=C(c3ccc(N4CCOCC4)cc3)C2=N1 [Example 397, 9-(4-morpholin-4-ylphenyl)-3,4-dihydropyrido[2,1-c][1,2,4]thiadiazine 2,2-dioxide]"
–,82,"O=S1(=O)CCN2C=CN=C(c3ccc(Oc4ccccc4)cc3)C2=N1 [Example 210, 9-(4-phenoxyphenyl)-3,4-dihydropyrazino[2,1-c][1,2,4]thiadiazine 2,2-dioxide]"
